Experimental data from article PMC12026874, “Microstructure of Sea Cucumber Parastichopus tremulus Peptide Hydrogels and Bioactivity in Caco-2 Cell Culture Model” (Gels, 2025).
Entries after “also recorded” stand apart in the source; their conditions may differ. Where no end group is shown, it is not given here.

What was measured:
[1] = Experimental solubility and minimum gelation conditions; assay type: physicochemical; details: for solubility in sodium phosphate buffer (NaPB): 75 mM sodium phosphate buffer pH 7.4 (also ORAC buffer), 1–15 mM; for peptide concentration at which gelation occurs in NaPB: 75 mM sodium phosphate buffer pH 7.4, room temperature, no DMSO
[2] = biological target: T1, angiotensin-I converting enzyme (ACE I) (Oryctolagus cuniculus, UniProt P12822); experiment: ACE I inhibitory activity (cleavage of FA-PGG); assay type: biochemical; details: for IC50: linear regression over 7, 8.5 and 10 mg/mL, substrate FA-PGG, three independent replicates, read-out: ACE I inhibition IC50 (converted)
T1 construct: purchased Sigma Aldrich A6778
T1 sequence (P12822 34-1310): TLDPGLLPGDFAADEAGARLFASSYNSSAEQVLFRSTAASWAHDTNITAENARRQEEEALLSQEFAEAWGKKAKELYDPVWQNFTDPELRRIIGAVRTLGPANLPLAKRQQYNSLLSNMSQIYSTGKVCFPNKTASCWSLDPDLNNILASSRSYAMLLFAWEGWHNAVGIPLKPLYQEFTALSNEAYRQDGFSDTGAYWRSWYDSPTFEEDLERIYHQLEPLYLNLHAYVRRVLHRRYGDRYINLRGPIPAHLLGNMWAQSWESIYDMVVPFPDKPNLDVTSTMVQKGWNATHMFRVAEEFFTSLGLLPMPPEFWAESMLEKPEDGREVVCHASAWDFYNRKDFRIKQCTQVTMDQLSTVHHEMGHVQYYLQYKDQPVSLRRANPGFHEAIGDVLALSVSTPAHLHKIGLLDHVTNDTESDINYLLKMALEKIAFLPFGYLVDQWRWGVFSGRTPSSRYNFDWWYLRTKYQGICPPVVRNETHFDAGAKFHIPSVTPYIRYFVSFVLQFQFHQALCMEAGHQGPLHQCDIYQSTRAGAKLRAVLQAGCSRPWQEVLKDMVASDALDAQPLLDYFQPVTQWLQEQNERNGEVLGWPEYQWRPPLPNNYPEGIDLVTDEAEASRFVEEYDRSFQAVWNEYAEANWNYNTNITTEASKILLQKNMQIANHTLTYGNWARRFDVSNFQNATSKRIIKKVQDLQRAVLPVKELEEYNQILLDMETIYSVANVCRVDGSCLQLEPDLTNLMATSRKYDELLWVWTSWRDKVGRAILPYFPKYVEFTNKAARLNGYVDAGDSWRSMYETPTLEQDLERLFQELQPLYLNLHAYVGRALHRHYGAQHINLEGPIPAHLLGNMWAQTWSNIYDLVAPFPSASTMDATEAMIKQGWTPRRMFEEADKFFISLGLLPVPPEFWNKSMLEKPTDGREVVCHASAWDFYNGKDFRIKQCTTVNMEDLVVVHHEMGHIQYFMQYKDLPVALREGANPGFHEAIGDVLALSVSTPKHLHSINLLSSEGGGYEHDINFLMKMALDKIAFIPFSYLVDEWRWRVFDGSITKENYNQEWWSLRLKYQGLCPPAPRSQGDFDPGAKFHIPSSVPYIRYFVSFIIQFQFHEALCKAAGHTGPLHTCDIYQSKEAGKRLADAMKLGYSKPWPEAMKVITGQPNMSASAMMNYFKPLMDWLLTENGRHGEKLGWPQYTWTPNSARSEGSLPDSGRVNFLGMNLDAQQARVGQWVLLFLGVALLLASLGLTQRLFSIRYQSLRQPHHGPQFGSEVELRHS
Experimental: For the angiotensin-I converting enzyme (ACE I) inhibitory activity measurements, the peptides were dissolved as described for the ORAC assay. As the highest possible concentration of the peptides without gel formation was 10 mg/mL and no activity could be detected at 5 mg/mL, the peptides were assessed at 7, 8.5, and 10 mg/mL in three independent replicates. The substrate N-[3-(2-furyl) acryloyl]-L-phenylalanyl-glycylglycine (FA-PGG; Sigma Aldrich F7131) was prepared at 0.88 mM in 50 mM Tris-Cl, pH 7.5, and 0.3 M NaCl. In 96-well plates, 10 µL of the samples and their respective buffers as controls were combined with 10 µL of ACE I (ACE; Sigma Aldrich A6778) at 0.25 U/mL and 150 µL of a preheated substrate solution. The absorbance was continuously measured every minute at 340 nm for 30 min in a Synergy HTX S1LFA plate reader. Linear regression curves were obtained for the decrease in absorbance over time for every sample and the % ACE I inhibition was calculated as:% ACE I inhibition = (1 − (ΔA340 nm protein solution/ΔA340 nm negative control)) × 100
Captopril was used to verify the functionality of the assay, and a logarithmic inhibition curve was obtained using 340, 34, 17, and 8.5 µM captopril. IC 50 values were calculated for the peptides for which a positive linear regression line could be obtained based on their ACE inhibition (%) at the assessed concentrations.

[3] = accompanying manufacturer information; ref ProteoGenix SAS; cited from earlier work
Experimental: The peptide synthesis was carried out using ProteoGenix SAS, (Schiltigheim France), followed by acetate N-terminal blocking and chromatography purification (LC-MS purity chromatograms per peptide are included in the Supplementary Materials). Thus, 1 g of lyophilized powder at 80% or a higher purity (technical grade) in sterile plastic bottles was provided by ProteoGenix for further research. The peptides were stored at −20 °C, opened only prior to the dissolution preparation and ...

Substance | solubility in Ca2+-containing buffer ([1]; 1 mM peptide, artificial sea water pH 7.7, no DMSO, room temperature, visual) | solubility in sodium phosphate buffer (NaPB) ([1]; room temperature, visual) | peptide concentration at which gelation occurs in NaPB [1] | peptide concentration needed for gelation (minimal gelation conditions) ([1]; Ca2+-containing buffer (artificial sea water, 11 mM Ca2+, pH 7.7), room temperature 21 °C, mix at 1:1:1:1 ratio) [mM] | IC50 [2] [mM] | water solubility [3] | inhibition at 10000 µg/mL ([2]; at 10 mg/mL, mean of three replicates) [%] | individual peptide solubility ([1]; both buffers: Ca2+-containing artificial sea water pH 7.7 and 75 mM sodium phosphate buffer pH 7.4, 21 °C, visual, three repetitions)
Ac-SRPSDPASAVAGEDYTGISRN [Peptide P3] | fully soluble | dissolved after gentle agitation without any need for DMSO addition | above 15 mM | 15 | – | – | – | –
Ac-QNGEYGCVADTPNLLYAFKILDYRQ [Peptide P4] | – | dissolved after gentle agitation without any need for DMSO addition | above 15 mM | – | 8.96 | poor | – | –
Ac-RAGQPITAFLVRD [Peptide P2] | – | insoluble; also recorded: insolubility | – | – | 4.78 | – | 75 | low
Ac-EMLWLSDGSMGFAEDTDAAFLPGDTIFGRI [Peptide P1] | – | dissolved after gentle agitation without any need for DMSO addition | above 15 mM | – | – | poor | – | –
